Laboratory results as given in patent US8535897B2, “Assays for non-apoptotic cell death and uses thereof” (The Trustees of Columbia University in the City of New York, priority 2006, dated 2013).

Assays:
[1] = system: SW872; assay: Response of tumor cell lines to erastin (dose-response); format: cell-based; details: SW 872
Experimental: (§1) In certain aspects, the invention provides that erastin is lethal to tumor cells with activating mutations in proteins downstream of RAS proteins. Dose-response of 30 tumor cell lines to erastin was measured, and at least 50% inhibition of cell viability in 19 of the 30 tumor cell lines was formed. Numerous sarcoma-derived tumor cell lines were sensitive to erastin, consistent with the fact that erastin was discovered in an engineered tumor cell line created from human fibroblasts. Non-limiting examples include, HT1080 fibrosarcoma cells. HT1080 fibrosarcoma cells, which have a known activating mutation in NRAS, (Plattner, R. et al. Differential contribution of the ERK and JNK mitogen-activated protein kinase cascades to Ras transformation of HT1080 fibrosarcoma and DLD-1 colon carcinoma cells. Oncogene. 18: 1807-17 (1999), were quite sensitive to erastin. In order to determine whether RAS-activated signaling was modulated in cell lines that respond to erastin, the phosphorylation status of ERK1/2 in 12 sarcoma cell lines with a range of sensitivities to erastin was evaluated. In certain aspects, the invention provides a non-zero correlation, such as for example, a correlation coefficient of 0.41, between ERK1/2 phosphorylation status and erastin sensitivity in these cell lines.
(§2) Given that oncogenic RAS activates at least four downstream pathways, analysis was performed to identify which downstream effects were necessary for erastin sensitivity. In certain embodiments, the invention provides that erastin inhibits growth and kills genuine tumor cells with RAS mutations. In other embodiments, the invention provides measures of the dose-response of 29 tumor cell lines to erastin, wherein there is at least 50% inhibition of viability in 18 of the cell lines (Table 4). Numerous sarcoma-derived tumor cell lines were sensitive to erastin, consistent with the fact that erastin was discovered in an engineered tumor cell line created from human fibroblasts.

[2] = system: SK-N-MC; assay: as above; format: cell-based
Experimental: as §1, §2

[3] = system: HL-60; assay: as above; format: cell-based
Experimental: as §1, §2

[4] = system: EWS502; assay: as above; format: cell-based; details: EWS 502
Experimental: as §1, §2

[5] = system: SK-ES-1; assay: as above; format: cell-based; details: SICES1
Experimental: as §1, §2

[6] = system: TC32; assay: as above; format: cell-based; details: TC 32
Experimental: as §1, §2

[7] = system: U973; assay: as above; format: cell-based; details: U937
Experimental: as §1, §2

[8] = system: TC71; assay: as above; format: cell-based; details: TC 71
Experimental: as §1, §2

[9] = system: VDAC3; assay: VDAC isoform levels after erastin treatment (quantitative 2D western); format: cell-based, human; details: BJ-TERT/LT/ST/RASV12 cells
Text: (§3) (a) Quantitative western blot of VDAC/eif4E protein ratio in engineered BJ-derived cells. (b) Identification of VDAC isoforms in BJ-TERT/LT/ST/RAS^V12 cells using 2-D electrophoresis. i) VDAC1, VDAC2 and VDAC3 were detected by a rabbit polyclonal VDAC antibody (Abcam/ab3434), ii) VDAC1 was detected by a mouse monoclonal VDAC1 antibody (Calbiochem/529534), iii) VDAC2 was detected by a goat polyclonal VDAC2 antibody (Abcam/ab22170), iv) An illustration of 3 isoforms of VDAC separated by the 2-D gel electrophoresis. (c) BJ-TERT/LT/ST/RASV12 cells were treated with erastin for the indicated time and levels of each VDAC isoform determined by quantitative 2D western. (d,e) Infection with VDAC3 shRNA protects erastin-treated cells. 293T cells were transfected with shRNA-plasmid construct using FuGene and viral supernatant transferred to HT1080 cells, and treated with erastin dilutions and viability measured using Trypan Blue exclusion. […] (f) Quantitative RT-PCR measurements of mRNA levels of the 3 VDAC isoforms after infection with shVDAC3. Knockdown was determined by normalizing to the levels in the shGFP-infected control. […] (g) Mitochondria were purified from yeast expressing murine VDAC3 in place of yeast VDAC, and the rate of NADH uptake determined in the presence or absence of erastin, or in shocked mitochondria in which the outer membrane was disrupted. […]

[10] = system: VDAC2; assay: as above; format: cell-based, human; details: BJ-TERT/LT/ST/RASV12 cells
Text: as §3

[11] = system: BJELR; assay: Response of tumor cell lines to erastin (dose-response); format: cell-based, human; details: BJ-TERT/LT/ST/RASV12
Experimental: as §1, §2

[12] = system: HT1080; assay: as above; format: cell-based, human; details: HT 1080
Experimental: as §1, §2

[13] = system: A673; assay: as above; format: cell-based, human
Experimental: as §1, §2

[14] = system: BJEH; assay: as above; format: cell-based, human; details: BJ-TERT
Experimental: as §1, §2

SMILES: CCOc1ccccc1-n1c(C(C)N2CCN(C(=O)COc3ccc(Cl)cc3)CC2)nc2ccccc2c1=O (centres unmarked) [erastin]
- Erastin Sensitivity (maximum killing induced by erastin) [1]: 0.00
- Erastin Sensitivity (maximum killing induced by erastin) [2]: 0.95
- Erastin Sensitivity (maximum killing induced by erastin) [3]: 0.00
- Erastin Sensitivity (maximum killing induced by erastin) [4]: 0.42
- Erastin Sensitivity (maximum killing induced by erastin) [5]: 0.96
- Erastin Sensitivity (maximum killing induced by erastin) [6]: 0.88
- Erastin Sensitivity (maximum killing induced by erastin) [7]: 0.73
- Erastin Sensitivity (maximum killing induced by erastin) [8]: 0.92
- treatment time after which VDAC3 was no longer detectable [9]: 8 h
- treatment time after which VDAC2 became undetectable [10]: 10 h
- Erastin Sensitivity (maximum killing induced by erastin) [11]: 1.00
- Erastin Sensitivity (maximum killing induced by erastin) [12]: 0.98
- Erastin Sensitivity (maximum killing induced by erastin) [13]: 0.54
- Erastin Sensitivity (maximum killing induced by erastin) [14]: 0.22
